The test system of test [1] is Escherichia coli expressing NDM-1 (CLB30016). The test is described as follows: Antibiotic potentiation activity: synergistic concentration (MITC95) with imipenem, growth by OD600. Format: cell-based. The conditions noted are these: E. coli CLB30016 (NDM-1), 95% inhibition of growth. Put shortly:
(§1)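 MITC95 = lowest inhibitor concentration giving 95% growth inhibition, read by absorbance after 22–24 h at 35° C. Compound range 200 μM to 0.195 μM, imipenem fixed at 1 or 4 μg/ml, bacteria in 1.1×CAMHB from saline suspension diluted 1:100.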

For test [2], the system named is Serratia marcescens expressing IMP-1 (CL5741). The description is as above. Format: cell-based. The conditions noted are these: S. marcescens CL5741 (IMP-1), 95% inhibition of growth. Put shortly: as §1
The test system of test [3] is Klebsiella pneumoniae expressing VIM-1 (IHMA599644). The test is described as above. Format: cell-based. The settings on record: K. pneumoniae IHMA599644 (VIM-1), 95% inhibition of growth. Put shortly:
as §1

The target of the next test is VIM-1 (Pseudomonas aeruginosa, UniProt A0A0F7KYQ8). The test is described as follows: Enzyme activity: determination of IC50, fluorescence assay with CCF2-FA substrate. Type of test: biochemical. The conditions noted are these: VIM-1 enzyme 30 pM, CCF2-FA 1.25 μM, 2 hours at 25° C.; read-out: VIM1 IC50. In outline: (§2)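 100 mM KH2PO4 pH 7 + 0.005% Tween-20 + 10 μM ZnSO4; CCF2-FA 1.25 μM; NDM-1 1 pM, IMP-1 2 pM, VIM-1 30 pM; cpd 20–0.00063 μM final, DMSO 1:50. 2 h, 25° C. Ex 405/em 460 nm; IC50, 4-param fit.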

In a further test the target is IMP-1 (Serratia marcescens, UniProt P52699). The description is as above. The conditions noted are these: IMP-1 enzyme 2 pM, CCF2-FA 1.25 μM, 2 hours at 25° C.; read-out: IMP1 IC50. Format: biochemical. In outline: as §2
Chain of IMP-1 (P52699 19-246, looked up, species assumed): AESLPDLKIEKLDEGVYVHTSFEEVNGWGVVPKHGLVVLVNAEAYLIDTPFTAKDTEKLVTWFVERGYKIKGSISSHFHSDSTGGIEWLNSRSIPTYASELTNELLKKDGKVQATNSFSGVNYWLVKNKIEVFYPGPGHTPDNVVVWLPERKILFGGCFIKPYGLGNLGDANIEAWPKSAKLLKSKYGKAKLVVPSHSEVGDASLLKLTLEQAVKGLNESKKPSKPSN
The next test deals with NDM-1 (Klebsiella pneumoniae, UniProt C7C422). The test is described as above. Format: biochemical. The conditions noted are these: NDM-1 enzyme 1 pM, CCF2-FA 1.25 μM, 2 hours at 25° C.; read-out: NDM1 IC50. In outline:
as §2

Where only a bound is given, the exact number is not on record here.

Chain of NDM-1 (C7C422 29-270, looked up, species assumed): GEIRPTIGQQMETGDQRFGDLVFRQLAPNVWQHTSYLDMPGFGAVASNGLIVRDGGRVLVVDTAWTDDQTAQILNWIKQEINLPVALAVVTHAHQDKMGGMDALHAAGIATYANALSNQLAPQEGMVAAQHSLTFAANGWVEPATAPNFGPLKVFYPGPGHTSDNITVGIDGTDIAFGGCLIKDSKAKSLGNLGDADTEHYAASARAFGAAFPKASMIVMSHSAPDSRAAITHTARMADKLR

Usually IC50 stands for the concentration that inhibits the measured activity by half. With `CC(C)C[C@H](C(=O)O)[C@H](Cc1ccc(Oc2ccnc(N3CCNCC3)c2)nc1)c1nn[nH]n1` [Example 379, (2S)-4-methyl-2-[(1S)-2-{6-[(2-piperazin-1-ylpyridin-4-yl)oxy]pyridin-3-yl}-1-(2H-tetrazol-5-yl)ethyl]pentanoic acid], the “NDM1 EC30016 MITC95” value in test [1] is 9.4 µM. In addition, in test [2], the “IMP1 SM5741 MITC95” value amounted to 16 µM. Besides, in test [3], the “VIM1 KP599644 MITC95” value amounted to 100 µM. In addition, the IC50 on VIM-1 was 0.0071 µM; at IMP-1 it was 0.37 µM; at NDM-1, 0.032 µM.

Consider `CC(C)C[C@H](C(=O)O)[C@H](Cc1ccc(Oc2ccc(C(C)N)nc2)nc1)c1nn[nH]n1` (stereo partly drawn) [Example 380, (2S)-2-[(1S)-2-(6-{[6-(1-aminoethyl)pyridin-3-yl]oxy}pyridin-3-yl)-1-(2H-tetrazol-5-yl)ethyl]-4-methylpentanoic acid], for which the “NDM1 EC30016 MITC95” value in test [1] turned out to be 4.7 µM. Also, the “IMP1 SM5741 MITC95” value in test [2] came to 4.7 µM. Moreover, in test [3], the “VIM1 KP599644 MITC95” value was found to be 50 µM. The values for the IC50 at VIM-1, at IMP-1 and at NDM-1 were 0.0024 µM, 0.064 µM and 0.012 µM, respectively.

For the molecule `CC(C)C[C@H](C(=O)O)[C@H](Cc1ccc(Oc2ccccc2)nc1)c1nn[nH]n1` [Example 381, (2S)-4-methyl-2-[(1S)-2-(6-phenoxypyridin-3-yl)-1-(2H-tetrazol-5-yl)ethyl]pentanoic acid], the “NDM1 EC30016 MITC95” value in test [1] was determined as 9.4 µM. Moreover, in test [2], the “IMP1 SM5741 MITC95” value is 4.7 µM. Moreover, in test [3], the “VIM1 KP599644 MITC95” value came out at 75 µM. Also, the IC50 amounted to 0.0041 µM on VIM-1, 0.086 µM at IMP-1 and 0.024 µM on NDM-1.

In the case of `CC(C)C[C@H](C(=O)O)[C@H](Cc1ccc(Oc2cccc(C3CCCNC3)c2)nc1)c1nn[nH]n1` (stereo partly drawn) [Example 382, (2S)-4-methyl-2-[(1S)-2-[6-(3-piperidin-3-ylphenoxy)pyridin-3-yl]-1-(2H-tetrazol-5-yl)ethyl]pentanoic acid], the “NDM1 EC30016 MITC95” value in test [1] came to 12.5 µM. In test [2], the “IMP1 SM5741 MITC95” value was 12.5 µM. For the same molecule, in test [3], the “VIM1 KP599644 MITC95” value was 75 µM. Also, the values for the half-maximal inhibitory concentration (IC50) on VIM-1, on IMP-1 and at NDM-1 were 0.034 µM, 0.17 µM and 0.14 µM, respectively.

As for `CC(C)C[C@H](C(=O)O)[C@H](Cc1ccc(Oc2ccc(CO)cc2)nc1)c1nn[nH]n1` [Example 383, (2S)-2-[(1S)-2-{6-[4-(hydroxymethyl)phenoxy]pyridin-3-yl}-1-(2H-tetrazol-5-yl)ethyl]-4-methylpentanoic acid], the “NDM1 EC30016 MITC95” value in test [1] turned out to be 25 µM. In test [2], the “IMP1 SM5741 MITC95” value stood at 12.5 µM. Moreover, the “VIM1 KP599644 MITC95” value in test [3] turned out to be 150 µM. Besides, the values for the half-maximal inhibitory concentration (IC50) at VIM-1, at IMP-1 and on NDM-1 were 0.056 µM, 0.15 µM and 0.034 µM, respectively.

On to `CC(C)C[C@H](C(=O)O)[C@H](Cc1ccc(Oc2ccc(CC(C)(C)N)cc2)nc1)c1nn[nH]n1` [Example 386, (2S)-2-[(1S)-2-{6-[4-(2-amino-2-methylpropyl)phenoxy]pyridin-3-yl}-1-(2H-tetrazol-5-yl)ethyl]-4-methylpentanoic acid], for which the “NDM1 EC30016 MITC95” value in test [1] is 25 µM. In test [2], the “IMP1 SM5741 MITC95” value came out at 12.5 µM. Besides, the “VIM1 KP599644 MITC95” value in test [3] is over 200 µM. Besides, the results for the IC50 at VIM-1, at IMP-1 and at NDM-1 were 0.1 µM, 0.18 µM and 0.12 µM, respectively.

Turning to `CC(C)C[C@H](C(=O)O)[C@H](Cc1ccc(Oc2cccc3c2CCNC3)nc1)c1nn[nH]n1` [Example 388, (2S)-4-methyl-2-[(1S)-2-[6-(1,2,3,4-tetrahydroisoquinolin-5-yloxy)pyridin-3-yl]-1-(2H-tetrazol-5-yl)ethyl]pentanoic acid], the “NDM1 EC30016 MITC95” value in test [1] came to 25 µM. Moreover, the “IMP1 SM5741 MITC95” value in test [2] was 18.8 µM. For the same molecule, in test [3], the “VIM1 KP599644 MITC95” value is 38 µM. Further, the half-inhibitory concentration (IC50) at VIM-1 worked out at 0.018 µM; at IMP-1, 0.34 µM; on NDM-1, 0.13 µM.

For the molecule `CC(C)C[C@H](C(=O)O)[C@H](Cc1ccc(Oc2cccc3c2CCCN3)nc1)c1nn[nH]n1` [Example 389, (2S)-4-methyl-2-[(1S)-2-[6-(1,2,3,4-tetrahydroquinolin-5-yloxy)pyridin-3-yl]-1-(2H-tetrazol-5-yl)ethyl]pentanoic acid], in test [1], the “NDM1 EC30016 MITC95” value was determined as 25 µM. For the same molecule, the “IMP1 SM5741 MITC95” value in test [2] is 6.2 µM. In test [3], the “VIM1 KP599644 MITC95” value came out at 100 µM. The concentration for half-maximal inhibition (IC50) at VIM-1 amounted to 0.0044 µM; on IMP-1, 0.058 µM; at NDM-1, 0.016 µM.

With `CC(C)C[C@H](C(=O)O)[C@H](Cc1ccc(Oc2ccc(CN)cc2)nc1)c1nn[nH]n1` [Example 390, (2S)-2-[(1S)-2-{6-[4-(aminomethyl)phenoxy]pyridin-3-yl}-1-(2H-tetrazol-5-yl)ethyl]-4-methylpentanoic acid], the “NDM1 EC30016 MITC95” value in test [1] was determined as 1.6 µM. Besides, the “IMP1 SM5741 MITC95” value in test [2] was determined as 12.5 µM. Moreover, in test [3], the “VIM1 KP599644 MITC95” value was found to be 25 µM. Also, the IC50 is 0.0053 µM at VIM-1, 0.24 µM at IMP-1 and 0.035 µM on NDM-1.

With `CC(C)C[C@H](C(=O)O)[C@H](Cc1ccc(Oc2ccccn2)nc1)c1nn[nH]n1` [Example 391, (2S)-4-methyl-2-[(1S)-2-[6-(pyridin-2-yloxy)pyridin-3-yl]-1-(2H-tetrazol-5-yl)ethyl]pentanoic acid], the “NDM1 EC30016 MITC95” value in test [1] stood at 25 µM. The “IMP1 SM5741 MITC95” value in test [2] was found to be 25 µM. In addition, the “VIM1 KP599644 MITC95” value in test [3] was found to be 100 µM. In addition, the IC50 on VIM-1 turned out to be 0.052 µM; at IMP-1 it was 0.64 µM; on NDM-1, 0.044 µM.

For `CCC[C@H](C(=O)O)[C@H](Cc1ccccc1-c1ccccc1)c1nn[nH]n1` [Example 393, (2S)-2-[(1S)-2-biphenyl-2-yl-1-(2H-tetrazol-5-yl)ethyl]pentanoic acid], the “NDM1 EC30016 MITC95” value in test [1] is 4.7 µM. The “IMP1 SM5741 MITC95” value in test [2] was found to be 25 µM. Moreover, the “VIM1 KP599644 MITC95” value in test [3] was found to be 75 µM. Further, the IC50 was 0.0045 µM on VIM-1, 1 µM at IMP-1 and 0.0032 µM on NDM-1.

For the molecule `CCC[C@H](C(=O)O)[C@H](Cc1ccccc1-c1ccc(C(N)=O)cc1)c1nn[nH]n1` [Example 394, (2S)-2-[(1S)-2-(4′-carbamoylbiphenyl-2-yl)-1-(2H-tetrazol-5-yl)ethyl]pentanoic acid], the “NDM1 EC30016 MITC95” value in test [1] amounted to 4.7 µM. Besides, the “IMP1 SM5741 MITC95” value in test [2] is 25 µM. Also, in test [3], the “VIM1 KP599644 MITC95” value came to 38 µM. Besides, the concentration for half-maximal inhibition (IC50) at VIM-1 worked out at 0.0039 µM; on IMP-1 it was 0.45 µM; at NDM-1 it was 0.0022 µM.

Regarding `CCC[C@H](C(=O)O)[C@H](Cc1ccccc1-c1ccc(C2CCNCC2)cc1)c1nn[nH]n1` [Example 395, (2S)-2-[(1S)-2-(4′-piperidin-4-ylbiphenyl-2-yl)-1-(2H-tetrazol-5-yl)ethyl]pentanoic acid], the “NDM1 EC30016 MITC95” value in test [1] was determined as 6.2 µM. Further, the “IMP1 SM5741 MITC95” value in test [2] was 6.25 µM. In test [3], the “VIM1 KP599644 MITC95” value stood at 16 µM. In addition, the half-inhibitory concentration (IC50) on VIM-1 is 0.00048 µM; at IMP-1 it was 0.12 µM; at NDM-1, 0.0001 µM.

`CCC[C@H](C(=O)O)[C@H](Cc1ccccc1-c1cccnc1)c1nn[nH]n1` [Example 396, (2S)-2-[(1S)-2-(2-pyridin-3-ylphenyl)-1-(2H-tetrazol-5-yl)ethyl]pentanoic acid]: in test [1], the “NDM1 EC30016 MITC95” value is 9.4 µM. For the same molecule, the “IMP1 SM5741 MITC95” value in test [2] came out at 75 µM. Further, in test [3], the “VIM1 KP599644 MITC95” value stood at 50 µM. Moreover, the IC50 on VIM-1 was determined as 0.018 µM; on IMP-1, 2.8 µM; on NDM-1 it was 0.0092 µM.

As to `CCC[C@H](C(=O)O)[C@H](Cc1ccccc1-c1ccncc1)c1nn[nH]n1` [Example 397, (2S)-2-[(1S)-2-(2-pyridin-4-ylphenyl)-1-(2H-tetrazol-5-yl)ethyl]pentanoic acid], the “NDM1 EC30016 MITC95” value in test [1] amounted to 6.2 µM. Moreover, the “IMP1 SM5741 MITC95” value in test [2] is 200 µM. Moreover, in test [3], the “VIM1 KP599644 MITC95” value was 75 µM. In addition, the concentration for half-maximal inhibition (IC50) amounted to 0.016 µM at VIM-1, 5 µM on IMP-1 and 0.013 µM on NDM-1.

Turning to `CCC[C@H](C(=O)O)[C@H](Cc1ccccc1-c1ccc(N)nc1)c1nn[nH]n1` [Example 398, (2S)-2-[(1S)-2-[2-(6-aminopyridin-3-yl)phenyl]-1-(2H-tetrazol-5-yl)ethyl]pentanoic acid], the “NDM1 EC30016 MITC95” value in test [1] was found to be 3.1 µM. Further, in test [2], the “IMP1 SM5741 MITC95” value stood at 75 µM. Moreover, the “VIM1 KP599644 MITC95” value in test [3] turned out to be 25 µM. The IC50 at VIM-1 stood at 0.01 µM; on IMP-1, 1.1 µM; on NDM-1, 0.0016 µM.

As to `CCC[C@H](C(=O)O)[C@H](Cc1ccccc1-c1cccc(C(N)=O)c1)c1nn[nH]n1` [Example 399, (2S)-2-[(1S)-2-(3′-carbamoylbiphenyl-2-yl)-1-(2H-tetrazol-5-yl)ethyl]pentanoic acid], the “NDM1 EC30016 MITC95” value in test [1] worked out at 6.2 µM. Moreover, the “IMP1 SM5741 MITC95” value in test [2] stood at 25 µM. Also, in test [3], the “VIM1 KP599644 MITC95” value was 25 µM. Moreover, the results for the half-inhibitory concentration (IC50) on VIM-1, on IMP-1 and on NDM-1 were 0.0016 µM, 0.43 µM and 0.0014 µM, respectively.

These data come from patent publication US9839642B2, “Beta-tetrazolyl-propionic acids as metallo-beta-lactamase inhibitors” (priority 2014, dated 2017).
